What was measured:
[1] = target: T1, Prolyl oligopeptidase (PO) (Homo sapiens, UniProt P48147); test: prolyl oligopeptidase metaprobe hydrolysis in bronchoalveolar lavage fluid; format: biochemical; details: Human BAL
T1 sequence (P48147 1-710): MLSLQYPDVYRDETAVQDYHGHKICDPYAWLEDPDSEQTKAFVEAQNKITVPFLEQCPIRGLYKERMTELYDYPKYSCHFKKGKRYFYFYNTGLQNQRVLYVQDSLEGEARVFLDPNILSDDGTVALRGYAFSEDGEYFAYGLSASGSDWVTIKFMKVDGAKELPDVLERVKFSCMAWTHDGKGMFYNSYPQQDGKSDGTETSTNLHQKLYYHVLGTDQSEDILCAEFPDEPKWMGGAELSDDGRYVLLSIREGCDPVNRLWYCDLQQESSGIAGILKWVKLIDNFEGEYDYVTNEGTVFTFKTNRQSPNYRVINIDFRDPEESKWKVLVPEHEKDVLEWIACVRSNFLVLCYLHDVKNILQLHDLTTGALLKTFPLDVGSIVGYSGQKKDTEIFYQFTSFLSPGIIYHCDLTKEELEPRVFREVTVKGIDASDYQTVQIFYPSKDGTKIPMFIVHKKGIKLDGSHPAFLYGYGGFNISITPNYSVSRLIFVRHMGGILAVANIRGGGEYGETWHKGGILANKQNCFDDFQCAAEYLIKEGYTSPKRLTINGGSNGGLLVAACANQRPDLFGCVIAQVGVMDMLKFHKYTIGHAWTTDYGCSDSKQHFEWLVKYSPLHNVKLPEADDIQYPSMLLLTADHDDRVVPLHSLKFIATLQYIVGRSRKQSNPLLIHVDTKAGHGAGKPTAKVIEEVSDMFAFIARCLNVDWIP

[2] = target: T2, Prolyl oligopeptidase (PO) (Rattus norvegicus, UniProt O70196); test: prolyl oligopeptidase metaprobe hydrolysis in rat plasma, brain and lung preparations; format: biochemical
T2 sequence (O70196 1-710): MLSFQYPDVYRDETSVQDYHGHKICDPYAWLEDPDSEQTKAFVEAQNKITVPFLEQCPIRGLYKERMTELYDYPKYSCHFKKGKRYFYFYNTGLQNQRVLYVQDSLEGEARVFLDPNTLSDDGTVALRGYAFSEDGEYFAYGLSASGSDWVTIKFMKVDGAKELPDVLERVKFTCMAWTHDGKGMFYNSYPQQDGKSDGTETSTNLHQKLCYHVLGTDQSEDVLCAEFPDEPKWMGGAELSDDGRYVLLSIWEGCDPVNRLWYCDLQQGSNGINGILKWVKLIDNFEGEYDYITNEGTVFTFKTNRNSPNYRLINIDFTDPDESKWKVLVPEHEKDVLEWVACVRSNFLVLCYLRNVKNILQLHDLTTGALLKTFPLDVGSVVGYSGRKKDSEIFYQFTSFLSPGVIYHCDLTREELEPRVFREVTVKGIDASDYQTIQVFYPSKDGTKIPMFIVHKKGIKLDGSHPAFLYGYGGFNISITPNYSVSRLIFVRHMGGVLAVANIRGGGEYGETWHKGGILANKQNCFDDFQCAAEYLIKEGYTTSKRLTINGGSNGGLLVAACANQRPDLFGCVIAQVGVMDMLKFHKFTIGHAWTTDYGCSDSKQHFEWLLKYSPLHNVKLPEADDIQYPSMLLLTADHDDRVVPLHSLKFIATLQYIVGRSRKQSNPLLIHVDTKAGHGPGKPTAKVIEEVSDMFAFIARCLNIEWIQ

[3] = tested on: glutamine-fructose-6-phosphate aminotransferase (GFAT); details: rat, in vivo
Description: (§1) In the first experiment, six male Sprague-Dawley rats, weighing on average 300 grams, were studied while awake and unstressed after an overnight fast. […] Food and water were then given ad libitum. After receiving the metaprobes, the animals were kept in metabolic cages to facilitate collection of urine (Robinson, 1968).

[4] = tested on: N-acetyl transferase (NAT); test: NAT metaprobe 13C recovery in urinary glucosamine fraction; format: in vivo, Sprague-Dawley rats; details: 5 mg/kg by gastric intubation, 24 hour urine, bile acid glucosamine fraction
Description: as §1

[5] = tested on: N-acetyl transferase (NAT); test: NAT metaprobe 13C recovery in human urine; format: in vivo
Protocol: The tracers were ingested each time with 100 ml of a 10% aqueous solution of high fructose corn syrup. Urine samples were collected at 12, 24 and 36 hours. […] The analysis of each urine sampling interval was carried out in triplicate and the variation among replicates fell within 15%. […] Also, since aspartyl-N-acetyl-glucosamine pyranoside is rapidly synthesized and subsequently turned over by lysozomes, its rate of appearance in plasma can be determined, along with the plasma rate of appearance of N-acetylglucosamine, at shorter intervals post dosing. Thus, the MRI2 index could be computed within reach of the two-hour preferred sampling time frame for the practicable implementation of diagnostic procedures with metaprobes.

SMILES: CCO[13C](=O)[C@H](CC)NC(=O)[C@@H]1CCCN1C(=O)CNC(=O)OCc1ccccc1 [Prolyl oligopeptidase Metaprobe, N-carbobenzyloxy-glycyl-L-prolyl-L-2-aminobutyric [1-^13C] acid ethyl ester]
- % Dose metabolized ([1]; Control, two hour incubation at 37° C.): 30 ± 4 % Dose
- % Dose metabolized ([1]; Test sample, ARDS): 54 ± 13 % Dose
- % Dose metabolized ([2]; Rat Brain homogenate (acetone powder), Control): 44 ± 8 % Dose
- % Dose metabolized ([2]; Rat Lung homogenate (acetone powder), Control): 24 ± 12 % Dose
- % Dose metabolized ([2]; Rat Plasma, Control): 2 ± 4 % Dose
- % Dose metabolized ([2]; Rat Plasma, Test sample, Sepsis): 8 ± 5 % Dose

SMILES: CC(=O)NC(CCC([15NH2])=O)C(=O)O (centres unmarked) [N-acetyl-5-^15N-glutamine]
- normalized 15N/13C GFAT-MRI1 [3]: 24

SMILES: CC(=O)N[C@@H]1[C@@H](O)[C@H](O)[C@@H](CO)O[13CH]1O (some centres unmarked) [N-acetyl-1-^13C-glucosamine]
- percent recovery of 13C [4]: 0.15+/−0.073%
- 13C % Dose ([5]; time point 12 hr): .089 % Dose
- 13C % Dose ([5]; time point 24 hr): .189 % Dose
- 13C % Dose ([5]; time point 36 hr): .213 % Dose

Source: patent US6610270B1, “In vivo determination of metabolic function for use in therapy management” (Xanthus Life Sciences, Inc., priority 1998, dated 2003)
